{"source": "patent US20260027068A1", "about": "“METHODS OF ADM[…]-KETAMINE” (Perception Neuroscience, Inc., priority 2022, published 2026)", "key": {"[1]": {"test": "Phase 1 single ascending dose plasma pharmacokinetics of 40-minute IV infusion of R(−)-ketamine and its metabolites", "conditions": "for Tmax: all dose levels 5 mg to 150 mg; for AUC(0-inf) / Cmax / AUC(0-t): iv", "method": "This was a Phase 1 randomized, placebo-controlled, double-blind, single dose study conducted at one center. […] The pharmacokinetic (PK) population was 36 subjects, with 12 additional subjects receiving placebo. […] Subjects were male or female healthy subjects, 18 to 65 years of age. […] Cohort 1 was dosed at 5 mg, followed by Cohort 2 at 15 mg, Cohort 3 at 30 mg, Cohort 4 at 60 mg, Cohort 5 at 100 mg, and Cohort 6 at 150 mg R(−)-ketamine. […] In addition to the safety and tolerability data, the study also evaluated the dose-related PK of each 40-minute IV infusion of R(−)-ketamine.\nTo evaluate the pharmacokinetics of R(−)-ketamine, blood was drawn from subjects for PK analysis at the following sampling times: pre-dose (−30 minutes); and from the start of infusion (5, 10, and 15 minutes [±1 minute], 30 minutes [±5 minutes], 40 minutes [immediately prior to infusion completion], 1, 1.5, 2, and 3 hours [±5 minutes], 4 and 8 hours [±10 minutes], 12 and 24 hours [±15 minutes]).\nPlasma PK parameters of R(−)-ketamine and its metabolites (norketamine, 6-hydroxynorketamine, and dehydronorketamine) evaluated on include the following: • Maximum plasma concentration (Cmax), • Time to Cmax (Tmax), • Area under the plasma concentration curve (AUC0-t, AUC0-∞) • Elimination rate constant (λz), • Half-live (t½) • Clearance (CL, P R(−)-ketamine only), • Volume of distribution (Vz, R(−)-ketamine only), and • Metabolite to parent ratios (area under curve [AUC] and Cmax).\nThe dose proportionality was assessed both visually and statistically using calculated Cmax and AUC values. […] Continuous variables: Descriptive statistics included the number of non-missing values (n), arithmetic mean, standard deviation (SD), median, minimum, and maximum values. […] For PK concentration data, the number of non-missing values, number of below limit of quantification (BLQ) values, arithmetic mean, SD, median, minimum, maximum, coefficient of variation (CV %), geometric mean, and geometric CV (geo CV %) values are presented. For PK parameter data, the number of non-missing values, arithmetic mean, SD, median, minimum, maximum, CV %, geometric mean, and geometric CV (geo CV %) values are presented.\nIntravenous administration of allocated blinded study drug (Morning, Day 1) was infused over 40 minutes. Blood collection for plasma PK analysis occurred at infusion 5, 10, 15, 30, 40, 60, and 90 minutes, and 2, 3, 4, 8, and 12 hours after the start of infusion.\nPlasma concentrations of R(−)-ketamine and its metabolites norketamine, 6-hydroxynorketamine, and dehydronorketamine were determined using a suitable validated analytical method with a lower limit of quantitation (LOQ) of 1 ng/mL.\nThe linearity of the increase in exposure with respect to the increasing dose administered was evaluated for Cmax and AUC for R(−)-ketamine and its metabolites (norketamine, 6-hydroxynorketamine and dehydronorketamine). […] The power model was used to estimate the slope parameter and the 90% confidence intervals for the slope."}, "rats": {"system": "rats", "test": "Anhedonic or negative affective side effects"}, "[2]": {"conditions": "in vivo; cited from earlier work"}, "TRD patients": {"system": "TRD patients", "conditions": "15 mg; cited from earlier work"}, "[3]": {"system": "phencyclidine site of the N-methyl-D-aspartate (NMDA) receptor", "conditions": "phencyclidine site; cited from earlier work"}, "[4]": {"conditions": "5 mg R(−)-ketamine IV over 40 minutes, plasma"}, "[5]": {"conditions": "150 mg R(−)-ketamine IV over 40 minutes, plasma"}}}
{"smiles": "NC1(c2ccccc2Cl)CCCC(O)C1=O", "note": "(stereo not shown) [6-hydroxynorketamine]", "values": [{"measurement": "Arithmetic mean AUC0-24h", "setting": "[1]; 5 mg R(−)-ketamine IV", "result": 110, "unit": "ng·h/mL"}, {"measurement": "Arithmetic mean AUC0-t", "setting": "[1]; 5 mg R(−)-ketamine IV", "result": 110, "unit": "ng·h/mL"}, {"measurement": "Arithmetic mean Cmax", "setting": "[1]; [4]", "result": 5.98, "unit": "ng/mL"}, {"measurement": "Arithmetic mean AUC0-24h", "setting": "[1]; 150 mg R(−)-ketamine IV", "result": 3000, "unit": "ng·h/mL"}, {"measurement": "Arithmetic mean AUC0-t", "setting": "[1]; 150 mg R(−)-ketamine IV", "result": 3000, "unit": "ng·h/mL"}, {"measurement": "Arithmetic mean Cmax", "setting": "[1]; [5]", "result": 165, "unit": "ng/mL"}, {"measurement": "Metabolite/R(−)-ketamine ratio based on AUC0-24h, arithmetic mean", "setting": "[1]; across 5 mg to 150 mg cohorts", "result": 2.22}, {"measurement": "Metabolite/R(−)-ketamine ratio based on AUC0-t, arithmetic mean", "setting": "[1]; across 5 mg to 150 mg cohorts", "result": 2.22}]}
{"smiles": "N[C@@]1(c2ccccc2Cl)CCC[C@@H](O)C1=O", "note": "[R-hydroxynorketamine]", "values": [{"measurement": "Anhedonic or negative affective side effects", "setting": "rats", "result": "no anhedonic or negative affective side effects"}]}
{"smiles": "CN[C@]1(c2ccccc2Cl)CCCCC1=O", "note": "[S(+)-ketamine, reference compound]", "values": [{"measurement": "Side effects (hyperlocomotion, prepulse inhibition deficit, drug dependence)", "setting": "[2]", "result": "induced side effects such as a hyperlocomotion, prepulse inhibition deficit, and drug dependence"}, {"measurement": "Antidepressant effect", "setting": "TRD patients", "result": "robust antidepressant effect"}, {"measurement": "Binding affinity relative to R(−)-ketamine", "setting": "[3]", "result": "approximately 4 times"}]}
{"smiles": "NC1(c2ccccc2Cl)CCC=CC1=O", "note": "(stereo not shown) [dehydronorketamine]", "values": [{"measurement": "Arithmetic mean AUC0-24h", "setting": "[1]; 5 mg R(−)-ketamine IV", "result": 2.5, "unit": "ng·h/mL"}, {"measurement": "Arithmetic mean AUC0-t", "setting": "[1]; 5 mg R(−)-ketamine IV", "result": 1.37, "unit": "ng·h/mL"}, {"measurement": "Arithmetic mean Cmax", "setting": "[1]; [4]", "result": 0.198, "unit": "ng/mL"}, {"measurement": "Arithmetic mean AUC0-inf", "setting": "[1]; 15 mg R(−)-ketamine IV", "result": 16.3, "unit": "ng·h/mL"}, {"measurement": "Fold increase in AUC0-inf", "setting": "[1]; 15 mg to 150 mg (10-fold increase in dose)", "result": 35.3, "unit": "fold"}, {"measurement": "Arithmetic mean AUC0-24h", "setting": "[1]; 150 mg R(−)-ketamine IV", "result": 424, "unit": "ng·h/mL"}, {"measurement": "Arithmetic mean AUC0-inf", "setting": "[1]; 150 mg R(−)-ketamine IV", "result": 576, "unit": "ng·h/mL"}, {"measurement": "Arithmetic mean AUC0-t", "setting": "[1]; 150 mg R(−)-ketamine IV", "result": 424, "unit": "ng·h/mL"}, {"measurement": "Arithmetic mean Cmax", "setting": "[1]; [5]", "result": 35.6, "unit": "ng/mL"}, {"measurement": "Stability in the samples", "setting": "[1]; PK samples", "result": "not stable in the samples"}]}
{"smiles": "NC1(c2ccccc2Cl)CCCCC1=O", "note": "(stereo not shown) [norketamine]", "values": [{"measurement": "Metabolite/R(−)-ketamine ratio based on Cmax, arithmetic mean", "setting": "[1]; across 5 mg to 150 mg cohorts", "result": 0.448}, {"measurement": "half-life", "setting": "[1]; both, human, plasma, intravenous", "result": "6.7 to 8.05", "unit": "h"}, {"measurement": "Tmax", "setting": "[1]; both, human, plasma, intravenous, Approximate median plasma Tmax", "result": "~1", "unit": "h"}, {"measurement": "Tmax", "setting": "[1]; both, human, plasma, intravenous, Plasma Tmax range (mixed units as printed)", "result": "0.667 to 2", "unit": "h"}, {"measurement": "AUC(0-inf)", "setting": "[1]; both, human, plasma, 5 mg", "result": 79.1, "unit": "ng·h/mL"}, {"measurement": "Cmax", "setting": "[1]; both, human, plasma, 5 mg", "result": 11.4, "unit": "ng/mL"}, {"measurement": "AUC(0-t)", "setting": "[1]; both, human, plasma, 5 mg, Arithmetic mean AUC0-24h, 5 mg R(−)-ketamine IV", "result": 79.6, "unit": "ng·h/mL"}, {"measurement": "AUC(0-t)", "setting": "[1]; both, human, plasma, 5 mg, Arithmetic mean AUC0-t, 5 mg R(−)-ketamine IV", "result": 78, "unit": "ng·h/mL"}, {"measurement": "AUC(0-inf)", "setting": "[1]; both, human, plasma, 150 mg", "result": 3530, "unit": "ng·h/mL"}, {"measurement": "Cmax", "setting": "[1]; both, human, plasma, 150 mg", "result": 360, "unit": "ng/mL"}, {"measurement": "AUC(0-t)", "setting": "[1]; both, human, plasma, 150 mg, Arithmetic mean AUC0-24h, 150 mg R(−)-ketamine IV", "result": 3140, "unit": "ng·h/mL"}, {"measurement": "AUC(0-t)", "setting": "[1]; both, human, plasma, 150 mg, Arithmetic mean AUC0-t, 150 mg R(−)-ketamine IV", "result": 3140, "unit": "ng·h/mL"}]}
